# Earlier results in US20040131981A1, “Color developing solution of silver halide color photographic photosensitive material and manufacturing method of color developing solution” (priority 2002, published 2004).
# “And” between values parts separate entries of the source, which are not always exact repeats. Equal values may be shown once.
# Conditions: Compound I, pH buffering agent of alkali part solution
row,Pka,Compound
1,10.01,"CNCC(=O)O [Compound I-2, H3C—NH—CH2—COOH]"
2,9.87,CC(N)C(=O)O (stereo not drawn) [Compound I-3]
3,10.26,"NCCC(=O)O [Compound I-4, H2N—C2H4—COOH]"
4,9.66,CCC(N)C(=O)O (stereo not drawn) [Compound I-5]
5,9.96,CCCCC(N)C(=O)O (stereo not drawn) [Compound I-7]
6,9.78,CC(C)CC(N)C(=O)O (stereo not drawn) [Compound I-8]
7,9.18,NC(Cc1ccccc1)C(=O)O (stereo not drawn) [Compound I-9]
8,9.12,NC(CO)C(=O)O (stereo not drawn) [Compound I-11]
9,10.28,NC(CS)C(=O)O (stereo not drawn) [Compound I-13]
10,9.13,CSCCC(N)C(=O)O (stereo not drawn) [Compound I-14]
11,9.62,NC(CC(=O)O)C(=O)O (stereo not drawn) [Compound I-15]
12,9.67,NC(CCC(=O)O)C(=O)O (stereo not drawn) [Compound I-16]
13,9.50,NCC(N)C(=O)O (stereo not drawn) [Compound I-17]
14,10.72 and 9.18,NCCCCC(N)C(=O)O (stereo not drawn) [Compound I-19]
15,9.08,N=C(N)NCCCC(N)C(=O)O (stereo not drawn) [Compound I-20]
16,10.10,"CCNCC(=O)O [Compound I-21, H5C2—NH—CH2—COOH]"
17,10.03,"CCCNCC(=O)O [Compound I-22, CH3CH2CH2—NH—CH2COOH]"
18,9.80,CN(C)CC(=O)O [Compound I-24]
19,10.47,CCN(CC)CC(=O)O [Compound I-25]
20,10.68,CC1CCNC1C(=O)O (stereo not drawn) [Compound I-26]
21,9.58,CC1C(O)CNC1C(=O)O (stereo not drawn) [Compound I-27]
22,9.55,NC(Cc1c[nH]c2ccccc12)C(=O)O (stereo not drawn) [Compound I-28]
23,10.31,NC1(C(=O)O)CCCC1 [Compound I-29]
24,10.13,NC1(C(=O)O)CCCCC1 [Compound I-30]
25,10.46,NC1(C(=O)O)CCCCCC1 [Compound I-31]

# Same assay, conditions: Compound II, pH buffering agent of alkali part solution
row,Compound,Pka
1,CN(C)CCN(C)C [II-44],10.13
2,"NCCCNCCCN [II-55, H2N—C3H6—NH—C3H6—NH2]",11.70 and 10.77

# Now from value to compound:
row,Pka,Compound
1,11.05,NCCN(CC(=O)O)CC(=O)O [II-25]
2,9.57,"O=C(O)CNCCNCC(=O)O [II-26, HOOCH2C—NH—C2H4—NH—CH2COOH]"
3,9.58,"O=C(O)CCNCCNCCC(=O)O [II-27, HOOCH4C2—NH—C2N4—NH—C2H4COOH]"
4,10.15,O=C(O)CN(CCN(CC(=O)O)C1CCCCC1)CC(=O)O [II-29]
5,10.38,O=C(O)CN(CCN(CC(=O)O)C1CCCCC1O)CC(=O)O (stereo not drawn) [II-30]
6,9.84,O=C(O)CN(CCN(CC(=O)O)c1ccccc1)CC(=O)O [II-31]
7,10.56,"CCNCCN [II-34, N-ethylethylenediamine]"
8,10.12,"NCCNCCO [II-37, N-(2-hydroxyethyl)ethylenediamine]"
9,10.00,CN(C)CCN [II-38]
10,10.02,CCN(CC)CCN [II-39]
11,10.29,CNCCNC [II-40]
12,9.97,"CC(N)C(C)N (stereo not drawn) [II-46, NH2—CH(CH3)—CH(CH3)—NH2]"
13,10.62,"NCCCN [II-47, H2N—C3H6—NH2]"
14,10.82 and 9.61,"NCCCCN [II-48, H2N—C4H8—NH2]"
15,10.96 and 10.02,"NCCCCCN [II-49, H2N—C5H10—NH2]"
16,9.99(cis),NC1CCCCC1N (stereo not drawn) [II-50]
17,9.89(trans),NC1CCCCC1N (stereo not drawn) [II-51]
18,10.48,NC1CCCCCC1N (stereo not drawn) [II-52]
19,9.94 and 9.13,NCC(CN)CN [II-54]
20,9.92 and 9.20,"NCCNCCNCCN [II-56, triethylenetetramine]"
21,9.92 and 9.20,"NCC(CN)CN [II-57, 1,3-diamino-2-aminomethylpropane]"

# Same assay, conditions: Compound III, pH buffering agent of alkali part solution
row,Pka,Compound
1,9.12,O=C(O)CNCC(=O)O [III-1]
2,10.31,O=C(O)CCNCCC(=O)O [III-2]
3,10.60,CN(CC(=O)O)CC(=O)O [III-3]
4,10.24,CC(C)(C)CCN(CC(=O)O)CC(=O)O [III-4]
5,10.79,O=C(O)CN(CCS)CC(=O)O [III-5]
6,9.24,O=C(O)CN(CCCO)CC(=O)O [III-6]
7,11.79,O=C(O)CN(CC(=O)O)Cc1ccc(O)cc1 [III-7]
8,10.46,O=C(O)CN(CCP(=O)(O)O)CC(=O)O [III-9]
9,9.60,NCCN(CCN)CCN [III-14]
10,9.61,"COCCN [III-16, CH3—O—C2H4—NH2]"
11,9.00,OCCNCCO [III-17]

row,Compound,Pka
1,O=C(O)CN(CC(=O)O)CP(=O)(O)O [III-8],10.76

# Same assay, conditions: PH buffering agent of alkali part solutions B1-B34, Table 3
row,Compound,pka
1,CC(N)C(=O)O (stereo not drawn) [Compound I-3],9.87 and 10.26
2,"NCCC(=O)O [Compound I-4, H2N—C2H4—COOH]",10.26
3,NC(CC(=O)O)C(=O)O (stereo not drawn) [Compound I-15],9.62
4,N=C(N)NCCCC(N)C(=O)O (stereo not drawn) [Compound I-20],9.08
5,"O[Si](O)(O)O [H2SiO2(OH)2, reference compound]",13.1
6,O=C([O-])[O-].[K+].[K+] [K2CO3 (carbonic acid)],10.33

# Now from value to compound:
row,pka,Compound
1,9.12,O=C(O)CNCC(=O)O [III-1]
2,9.00,OCCNCCO [III-17]

# Same assay, conditions: pH buffering agents with pKa 5 to 9 for fixing and bleaching-fixing solution
row,Compound,pKa
1,"CCN(CC)CCN [N,N-diethylethylenediamine]",7.07
2,"CN(C)CCN [N,N-dimethylethylenediamine]",6.79
3,"OCCNCCNCCO [N,N′-di(2-hydroxylethyl)ethylenediamine]",7.18
4,"CCNCCNCC [N,N′-diethylethylenediamine]",7.77
5,"CNCCNC [N,N′-dimethylethylenediamine]",7.47
6,"meso-2,3-diaminopropane",6.92

# The next lines start with the values.
row,pKa,Compound
1,7.63,"CCNCCN [II-34, N-ethylethylenediamine]"
2,7.21,"NCCNCCO [II-37, N-(2-hydroxyethyl)ethylenediamine]"
3,6.67,"NCCNCCNCCN [II-56, triethylenetetramine]"
4,6.44,"NCC(CN)CN [II-57, 1,3-diamino-2-aminomethylpropane]"
